Results on six compounds are retold here after publication PMC11995211, “Design, Synthesis, and Evaluation of a New Fluorescent Ligand for the M2 Muscarinic Acetylcholine Receptor” (ACS Medicinal Chemistry Letters, 2025).

The target in data set [1] is M2R. The settings on record: Figure 1, M2R antagonists; published data, reference numbers not given; cited from earlier work.
Another data set relates to M1. To be noted: Figure 1; published data, reference numbers not given; cited from earlier work.
A further data set has as its system M3. The settings on record: Figure 1; published data, reference numbers not given; cited from earlier work.
In the next data set the test system is M4. The settings on record: Figure 1; published data, reference numbers not given; cited from earlier work.
Another data set concerns M5. The settings on record: Figure 1; published data, reference numbers not given; cited from earlier work.
The conditions of data set [2]: literature statement, reference numbers not given; cited from earlier work.
A further data set deals with T1, hM1R (Homo sapiens, UniProt P11229).
T1 construct: expressed in transfected cells; host or cells: CHO cell membranes
T1 sequence (P11229 1-460): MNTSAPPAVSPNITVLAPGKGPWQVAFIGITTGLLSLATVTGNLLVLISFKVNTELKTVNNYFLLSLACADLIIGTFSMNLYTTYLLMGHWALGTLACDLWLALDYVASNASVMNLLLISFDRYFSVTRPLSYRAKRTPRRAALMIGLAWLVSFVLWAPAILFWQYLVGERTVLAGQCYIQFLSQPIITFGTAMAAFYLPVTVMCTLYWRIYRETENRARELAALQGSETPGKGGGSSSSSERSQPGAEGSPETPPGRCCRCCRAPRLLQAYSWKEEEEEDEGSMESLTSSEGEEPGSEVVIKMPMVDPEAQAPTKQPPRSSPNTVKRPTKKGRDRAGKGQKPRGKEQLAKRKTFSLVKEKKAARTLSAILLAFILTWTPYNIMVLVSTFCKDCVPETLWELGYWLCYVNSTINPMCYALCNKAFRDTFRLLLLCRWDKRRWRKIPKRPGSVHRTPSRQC
Briefly: Radioligand competition binding, [3H]-scopolamine (N-methyl), CHO cell membranes, hM1R. To be noted: mean ± SD, n = 3; membranes from CHO cells transfected with hM1R; read-out: Receptor Ki M1.

Data set [3] addresses T2, M2R (Homo sapiens, UniProt P08172).
T2 sequence (P08172 1-466): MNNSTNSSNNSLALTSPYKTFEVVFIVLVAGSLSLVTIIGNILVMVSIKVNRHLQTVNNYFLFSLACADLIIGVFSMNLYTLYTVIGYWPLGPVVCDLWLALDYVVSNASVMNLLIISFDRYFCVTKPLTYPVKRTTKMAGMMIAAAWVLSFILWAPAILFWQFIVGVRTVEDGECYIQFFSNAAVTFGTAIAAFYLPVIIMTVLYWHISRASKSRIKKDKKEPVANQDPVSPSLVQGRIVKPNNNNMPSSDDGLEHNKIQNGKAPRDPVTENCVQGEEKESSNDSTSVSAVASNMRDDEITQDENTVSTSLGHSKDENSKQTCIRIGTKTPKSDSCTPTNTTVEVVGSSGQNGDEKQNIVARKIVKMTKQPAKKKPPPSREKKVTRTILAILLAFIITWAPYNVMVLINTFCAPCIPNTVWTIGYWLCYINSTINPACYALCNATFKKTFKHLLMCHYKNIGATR
Briefly: BRET-based TRUPATH GoA activation assay, antagonism of carbachol-induced G protein activation. The settings on record: for mode of antagonism of carbachol-induced G protein activation: TRUPATH GoA assay. It counts as cell-based. Background: BRET reads energy transfer from a luciferase to a nearby fluorophore.

The target of a further data set is T3, hM4R (Homo sapiens, UniProt P08173).
T3 construct: expressed in transfected cells; host or cells: CHO cell membranes
T3 sequence (P08173 1-479): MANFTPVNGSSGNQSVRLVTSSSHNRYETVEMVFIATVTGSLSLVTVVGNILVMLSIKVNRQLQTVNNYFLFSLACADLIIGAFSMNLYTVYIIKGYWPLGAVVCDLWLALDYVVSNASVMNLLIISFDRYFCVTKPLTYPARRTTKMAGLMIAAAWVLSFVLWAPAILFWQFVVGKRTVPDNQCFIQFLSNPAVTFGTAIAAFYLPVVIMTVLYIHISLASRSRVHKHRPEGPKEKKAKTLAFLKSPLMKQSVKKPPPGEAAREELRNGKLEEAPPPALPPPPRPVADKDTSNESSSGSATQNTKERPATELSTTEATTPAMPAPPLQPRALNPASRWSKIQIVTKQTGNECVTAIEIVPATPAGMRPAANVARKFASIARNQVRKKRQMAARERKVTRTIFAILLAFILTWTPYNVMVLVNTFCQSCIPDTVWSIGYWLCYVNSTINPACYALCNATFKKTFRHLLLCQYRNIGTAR
Briefly: Radioligand competition binding, [3H]-scopolamine (N-methyl), CHO cell membranes, hM4R. To be noted: mean ± SD, n = 3; membranes from CHO cells transfected with hM4R; read-out: Receptor Ki M4. Background: Displacement assays read how much labelled ligand stays bound in the presence of the test substance.

The target in the next data set is T4, hM3R (Homo sapiens, UniProt P20309).
T4 construct: expressed in transfected cells; host or cells: CHO cell membranes
Briefly: Radioligand competition binding, [3H]-scopolamine (N-methyl), CHO cell membranes, hM3R. The settings on record: mean ± SD, n = 3; membranes from CHO cells transfected with hM3R; read-out: Receptor Ki M3.

In the next data set the target is T5, hM5R (Homo sapiens, UniProt P08912).
T5 construct: expressed in transfected cells; host or cells: CHO cell membranes
T5 sequence (P08912 1-532): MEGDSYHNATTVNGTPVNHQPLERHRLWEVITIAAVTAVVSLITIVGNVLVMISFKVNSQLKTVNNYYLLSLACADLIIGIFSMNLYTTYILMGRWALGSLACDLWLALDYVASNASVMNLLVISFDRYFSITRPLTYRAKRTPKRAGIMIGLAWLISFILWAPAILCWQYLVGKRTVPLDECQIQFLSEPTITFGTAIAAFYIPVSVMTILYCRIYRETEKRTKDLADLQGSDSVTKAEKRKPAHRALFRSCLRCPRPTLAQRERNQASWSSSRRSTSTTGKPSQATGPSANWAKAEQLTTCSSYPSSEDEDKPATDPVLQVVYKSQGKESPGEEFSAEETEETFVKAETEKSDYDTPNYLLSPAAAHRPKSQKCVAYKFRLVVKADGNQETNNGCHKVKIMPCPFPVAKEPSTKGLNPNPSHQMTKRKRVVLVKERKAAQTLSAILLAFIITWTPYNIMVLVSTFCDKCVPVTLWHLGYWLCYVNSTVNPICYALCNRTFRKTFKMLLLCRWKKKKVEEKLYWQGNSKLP
Briefly: Radioligand competition binding, [3H]-scopolamine (N-methyl), CHO cell membranes, hM5R. To be noted: mean ± SD, n = 3; membranes from CHO cells transfected with hM5R; read-out: Receptor Ki M5.

The target of the next data set is T6, hM2R (Homo sapiens, UniProt P08172).
T6 construct: expressed in transfected cells; host or cells: CHO cell membranes
T6 sequence (P08172 1-466): T2 sequence (P08172 1-466)
Briefly: Radioligand competition binding, [3H]-scopolamine (N-methyl), CHO cell membranes, hM2R. To be noted: mean ± SD, n = 3; membranes from CHO cells transfected with hM2R; read-out: Receptor Ki M2.

Broadly, the Ki is the equilibrium dissociation constant of an inhibitor or competing ligand from its target.

T4 sequence (P20309 whole entry): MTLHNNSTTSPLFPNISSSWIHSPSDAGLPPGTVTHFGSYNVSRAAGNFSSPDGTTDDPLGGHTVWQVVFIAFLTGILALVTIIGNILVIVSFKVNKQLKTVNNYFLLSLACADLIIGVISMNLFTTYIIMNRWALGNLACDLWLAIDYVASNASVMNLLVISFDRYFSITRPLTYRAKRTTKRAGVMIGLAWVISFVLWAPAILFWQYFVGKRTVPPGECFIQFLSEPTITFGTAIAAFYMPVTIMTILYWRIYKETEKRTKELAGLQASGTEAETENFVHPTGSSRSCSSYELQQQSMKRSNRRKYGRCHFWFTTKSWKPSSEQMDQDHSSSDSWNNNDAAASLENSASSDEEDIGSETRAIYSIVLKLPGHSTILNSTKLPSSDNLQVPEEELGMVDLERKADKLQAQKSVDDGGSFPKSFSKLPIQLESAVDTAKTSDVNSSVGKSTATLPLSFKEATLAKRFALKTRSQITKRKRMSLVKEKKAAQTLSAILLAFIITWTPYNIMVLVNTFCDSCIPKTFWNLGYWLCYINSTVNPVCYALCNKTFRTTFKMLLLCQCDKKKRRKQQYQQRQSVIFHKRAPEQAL

Take `CCCC(C)(C)C(=O)N(CC)CCCC1CCN(CC(=O)N2c3ccc(Cl)cc3C(=O)Nc3cccnc32)CC1` [Compound 1]: on M2R [1], the Ki is 30.2 nM. Moreover, in the data set on M1, the “M2R selectivity M1/M2” value was 35.
On to `CCN(CC)CC1CCCCN1CC(=O)N1c2ccccc2C(=O)Nc2cccnc21` (stereo not drawn) [Compound 2], for which the Ki at M2R [1] is 105 nM.
For `Cc1ccccc1C(=O)N1CCC(N2CCC(Cc3ccc(S(=O)(=O)c4ccc5c(c4)OCO5)cc3)CC2)CC1` [Compound 3], in the data set on M3, the “M2R selectivity M3/M2” value is recorded as 730. For the same compound, the “M2R selectivity M4/M2” value in the data set on M4 is recorded as 37. Also, the Ki on M2R [1] was 0.02 nM. The “M2R selectivity M5/M2” value in the data set with M5 is 280. For the same compound, in the data set with M1, the “M2R selectivity M1/M2” value is given as 1400. The pharmacokinetics entry in data set [2] was “poor”.
`Nc1ccccc1C(=O)N1CCC(N2CCC(Cc3ccc(S(=O)(=O)c4cccc(Cl)c4)cc3)CC2)CC1` [Compound 28]: the Ki was found to be 425 ± 32 nM on hM1R and 9.4 ± 1.1 nM on hM4R. Also, the oral bioavailability result in data set [2] was “good”. Further, the “mode of antagonism of carbachol-induced G protein activation” value at M2R [3] is “competitive antagonists”.
For the compound `NCCOCCOCCNc1ccccc1C(=O)N1CCC(N2CCC(Cc3ccc(S(=O)(=O)c4cccc(Cl)c4)cc3)CC2)CC1` [Compound 30], the Ki came out at 143 ± 11 nM on hM1R, 496 ± 36 nM at hM3R, 8.6 ± 0.7 nM at hM5R and 7.4 ± 0.6 nM at hM4R.
Turning to `NCCOCCOCCC(=O)NCCOCCOCCNc1ccccc1C(=O)N1CCC(N2CCC(Cc3ccc(S(=O)(=O)c4cccc(Cl)c4)cc3)CC2)CC1.O=C(O)C(F)(F)F` [Compound 32], the Ki on hM1R amounted to 113 ± 8 nM; on hM3R, 373 ± 38 nM; on hM5R it was 8.5 ± 0.9 nM; at hM2R, 1.1 ± 0.1 nM; on hM4R, 6.2 ± 0.9 nM. Also, at M2R [3], the “mode of antagonism of carbachol-induced G protein activation” value was “competitive antagonists”. The “Log(IC50) ± SD (M), carbachol-induced GoA protein activation” value at M2R [3] (log10 of IC50 (negative values), HEK 293T, compound 20 min, then 10 μM carbachol 15 min, Hill-slope = 1, n = 3) was “–6.97 ± 0.12 M”.
